Test results from ChEMBL document CHEMBL1142863, “A potent, covalent inhibitor of orotidine 5'-monophosphate decarboxylase with antimalarial activity” (J Med Chem, 2007).
≈ marks a conversion by molar mass, not a printed value. Calls of active or inactive are those of the source. The calls are words filed in the database; no cut-off is given here.

How the values were obtained:
[1] = Solubility in distilled water; format: physicochemical
Plasmodium falciparum = experiment: Antiparasitic activity against chloroquine-resistant Plasmodium falciparum ItG after 48 hrs by SYBR-Green assay; format: functional, organism-based
[2] = Dissociation constant, pKa of the compound; format: physicochemical
[3] = target: Orotidine 5'-phosphate decarboxylase (Methanobacterium thermoautotrophicum) (UniProt O26232); experiment: Inhibition of Methanobacterium thermoautotrophicum ODCase at 50 uM after 8 hrs; parameters: scale not given: the % may be the effect or the level left; conditions: Methanothermobacter thermautotrophicus
[4] = target: T1, Orotidine phosphate decarboxylase (Plasmodium falciparum) (UniProt Q8T6J6); experiment: Inhibition of Plasmodium falciparum ODCase
T1 sequence (whole entry): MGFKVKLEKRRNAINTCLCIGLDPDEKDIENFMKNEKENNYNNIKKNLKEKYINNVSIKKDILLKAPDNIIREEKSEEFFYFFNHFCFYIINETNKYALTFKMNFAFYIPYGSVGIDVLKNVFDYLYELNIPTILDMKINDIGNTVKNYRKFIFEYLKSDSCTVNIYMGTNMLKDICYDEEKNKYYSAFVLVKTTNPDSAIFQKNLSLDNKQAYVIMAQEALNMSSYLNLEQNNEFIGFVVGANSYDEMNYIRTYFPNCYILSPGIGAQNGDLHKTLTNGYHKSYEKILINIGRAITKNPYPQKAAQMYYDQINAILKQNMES

[5] = target: Orotidine 5'-phosphate decarboxylase (Methanobacterium thermoautotrophicum) (UniProt O26232); experiment: Inhibition of Methanobacterium thermoautotrophicum ODCase at 250 uM in less than 30 mins; conditions: Methanothermobacter thermautotrophicus

Orotidine 5'-phosphate decarboxylase (Methanobacterium thermoautotrophicum), sequence (O26232 whole entry, looked up): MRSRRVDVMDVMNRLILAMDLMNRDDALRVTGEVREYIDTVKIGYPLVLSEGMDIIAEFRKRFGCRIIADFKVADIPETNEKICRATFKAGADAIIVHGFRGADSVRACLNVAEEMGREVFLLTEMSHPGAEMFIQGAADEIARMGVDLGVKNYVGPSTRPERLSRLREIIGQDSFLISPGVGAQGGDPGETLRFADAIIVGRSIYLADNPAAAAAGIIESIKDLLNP

Row | Activity [3] [%] | Activity [4] | Activity [5] | Compound | solubility [1] [µg/mL] | IC50 (Plasmodium falciparum) [µM] | pKa [2]
1 | – | – | – | O=c1cc(I)n([C@@H]2O[C@H](CO)[C@@H](O)[C@H]2O)c(=O)[nH]1 | 4320 (≈ 11.7 mM) | 4.4 | 8.42
2 | > 60 | Active | Active | O=c1cc(I)n([C@@H]2O[C@H](COP(=O)(O)O)[C@@H](O)[C@H]2O)c(=O)[nH]1 | – | – | –
